US20110269811A1, “INHIBITORS OF SEMICARBAZIDE-SENSITIVE AMINE OXIDASE (SSAO) AND VAP-1 MEDIATED ADHESION USEFUL FOR TREATMENT AND PREVENTION OF DISEASES” (priority 2006, published 2011)

Key:
[1] = test system: collagen-induced arthritis; assay: Collagen-induced arthritis by direct injection of Type II collagen; assay type: in vivo, B10RIII mice; conditions: FIG. 15
Protocol: Collagen-induced arthritis can also be induced by direct injection of collagen. Groups of 15 male B10RIII mice were injected intradermally with Type II collagen in Complete Freund Adjuvant (CFA) on days 0 and 15. Mice were dosed p.o. starting from day 0 to day 28 with phosphate buffered saline (PBS), 5 mg/kg compound I-1-Z, 30 mg/kg compound I-1-Z or 0.2 mg/kg dexamethasone. […] Clinical scores were determined daily for each paw based on a scale between 0-5 based on joint erythema and swelling. Statistical analysis was by Student's t-test versus the PBS-treated disease control group.

A3 (h) = target: T1, A3 (h) (Homo sapiens, UniProt P0DMS8); assay: Receptor binding screen, [^125I]AB-MECA; conditions: 10 uM Concentration of Compound I-1-Z; read-out: Mean Value, percent inhibition of control specific binding: A3 (h)
T1 construct: expressed in transfected cells; host or cells: HEK-293 cells

β2 (h) = target: T2, β2 (h) (Homo sapiens, UniProt P07550); assay: Receptor binding screen, [^3H](−)CGP 12177; conditions: 10 uM Concentration of Compound I-1-Z; read-out: Mean Value, percent inhibition of control specific binding: β2 (h)
T2 construct: expressed in transfected cells; host or cells: Sf9 cells

CB1 (h) = target: T3, CB1 (h) (Homo sapiens, UniProt P21554); assay: Receptor binding screen, [^3H]CP 55940; conditions: 10 uM Concentration of Compound I-1-Z; read-out: Mean Value, percent inhibition of control specific binding: CB1 (h)
T3 construct: expressed in transfected cells; host or cells: CHO cells

GABA (non-selective) = assay: Receptor binding screen, [^3H]GABA; design: species or system rat; conditions: 10 uM Concentration of Compound I-1-Z
Protocol: (§1) For Table 4 below, the specific ligand binding to the receptors is defined as the difference between the total binding and the nonspecific binding determined in the presence of an excess of unlabelled ligand. The results are expressed as a percent inhibition of control specific binding obtained in the presence of Compound I-1-Z. The IC50 values (concentration causing a half-maximal inhibition of control specific binding) and Hill coefficients (nH) were determined by non-linear regression analysis of the competition curves using Hill equation curve fitting. The inhibition constants (Ki) were calculated from the Cheng Prusoff equation (Ki=IC50/(1+(L/KD)), where L=concentration of radioligand in the assay, and KD=affinity of the radioligand for the receptor). In each experiment, the respective reference compound was tested concurrently with Compound I-1-Z in order to assess the assay suitability.

MT1 (h) = target: T4, MT1 (h) (Homo sapiens, UniProt P48039); assay: Receptor binding screen, [^125I]iodomelatonin; conditions: 10 uM Concentration of Compound I-1-Z; read-out: Mean Value, percent inhibition of control specific binding: MT1 (h)
T4 construct: expressed in transfected cells; host or cells: CHO cells

M3 (h) = target: T5, M3 (h) (Homo sapiens, UniProt P20309); assay: Receptor binding screen, [^3H]4-DAMP; conditions: 10 uM Concentration of Compound I-1-Z; read-out: Mean Value, percent inhibition of control specific binding: M3 (h)
T5 construct: expressed in transfected cells; host or cells: CHO cells

NT1 (h) (NTS1) = target: T6, NT1 (h) (NTS1) (Homo sapiens, UniProt P30989); assay: Receptor binding screen, [^125I]Tyr^3-neurotensin; conditions: 10 uM Concentration of Compound I-1-Z; read-out: Mean Value, percent inhibition of control specific binding: NT1 (h) (NTS1)
T6 construct: expressed in transfected cells; host or cells: CHO cells

P2X = assay: Receptor binding screen, [^3H]α,β-MeATP, rat urinary bladder; conditions: 10 uM Concentration of Compound I-1-Z
P2Y = assay: Receptor binding screen, [^35S]dATPαS; design: species or system rat; conditions: 10 uM Concentration of Compound I-1-Z
5-HT6 (h) = target: T7, 5-HT6 (h) (Homo sapiens, UniProt P50406); assay: Receptor binding screen, [^3H]LSD; conditions: 10 uM Concentration of Compound I-1-Z; read-out: Mean Value, percent inhibition of control specific binding: 5-HT6 (h)
T7 construct: expressed in transfected cells; host or cells: CHO cells

σ (non-selective) = assay: Receptor binding screen, [^3H]DTG; design: species or system rat; conditions: 10 uM Concentration of Compound I-1-Z
Protocol: as §1

sst (non-selective) = assay: Receptor binding screen, [^125I]Tyr^11-somatostatin, AtT-20 cells; conditions: 10 uM Concentration of Compound I-1-Z
Protocol: as §1

[2] = test system: experimental autoimmune encephalomyelitis; assay: Experimental autoimmune encephalomyelitis (EAE), MOG peptide 35-55; assay type: in vivo, C57BL/6 mice; conditions: 40 mg/kg/dose once daily i.p. for 30 consecutive days
Protocol: SSAO/VAP-1 is expressed on the endothelium of inflamed tissues/organs including brain and spinal cord. Its ability to support lymphocyte transendothelial migration may be an important systemic function of SSAO/VAP-1 in inflammatory diseases such as multiple sclerosis and Alzheimer's disease. An analysis of the use of SSAO inhibitors to treat inflammatory disease of the central nervous system (CNS) was performed through the use of an experimental autoimmune encephalomyelitis model (EAE) in C57BL/6 mice. EAE in rodents is a well-characterized and reproducible animal model of multiple sclerosis in human (Benson J. M. et al. (2000) J. Clin. Invest. 106:1031). Multiple sclerosis is a chronic immune-mediated disease of the CNS characterized by patchy perivenular inflammatory infiltrates in areas of demyelination and axonal loss. As an animal model, EAE can be induced in mice by immunization with encephalitogenic myelin antigens in the presence of adjuvant. […]
To examine the role of SSAO/VAP-1 as a major regulator of the lymphocyte recruitment to the CNS, compound II-1-E, an SSAO inhibitor, was evaluated in an EAE model.
Twenty female C57BL/6 mice were immunized subcutaneously (s.c). with myelin oligodendrocyte glycoprotein 35-55 (MOG peptide 35-55) in Complete Freund Adjuvant (CFA) on day 0, followed by i.p. injections of 500 ng pertussis toxin (one pertussis toxin injection on day 0, a second pertussis toxin injection on day 2). Groups of 10 mice received either compound II-1-E 40 mg/kg/dose, once daily i.p. for 30 consecutive days), or vehicle control (once/day for 30 consecutive days) all starting from one day after the immunization and all administered i.p. The animals were monitored for body weight, signs of paralysis and death according to a 0-5 scale of scoring system as follows: 1=limp tail or waddling gait with tail tonicity; 2=waddling gait with limp tail (ataxia); 2.5=ataxia with partial limb paralysis; 3=full paralysis of one limb; 3.5=full paralysis of one limb with partial paralysis of second limb; 4=full paralysis of two limbs; 4.5=moribund; 5=death. […]

T3 sequence (P21554 whole entry): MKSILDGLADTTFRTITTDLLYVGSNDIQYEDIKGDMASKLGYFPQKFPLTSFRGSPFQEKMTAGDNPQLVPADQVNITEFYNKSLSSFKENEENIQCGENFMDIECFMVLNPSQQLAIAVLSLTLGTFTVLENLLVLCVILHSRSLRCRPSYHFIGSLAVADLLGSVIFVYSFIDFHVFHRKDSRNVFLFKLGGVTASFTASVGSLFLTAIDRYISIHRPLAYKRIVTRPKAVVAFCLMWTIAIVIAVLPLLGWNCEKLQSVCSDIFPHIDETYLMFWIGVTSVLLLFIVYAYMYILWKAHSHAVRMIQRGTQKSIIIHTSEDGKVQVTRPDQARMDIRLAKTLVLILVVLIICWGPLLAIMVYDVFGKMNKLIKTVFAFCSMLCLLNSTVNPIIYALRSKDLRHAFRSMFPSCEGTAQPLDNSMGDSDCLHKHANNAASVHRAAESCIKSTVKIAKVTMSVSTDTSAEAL
T1 sequence (P0DMS8 whole entry): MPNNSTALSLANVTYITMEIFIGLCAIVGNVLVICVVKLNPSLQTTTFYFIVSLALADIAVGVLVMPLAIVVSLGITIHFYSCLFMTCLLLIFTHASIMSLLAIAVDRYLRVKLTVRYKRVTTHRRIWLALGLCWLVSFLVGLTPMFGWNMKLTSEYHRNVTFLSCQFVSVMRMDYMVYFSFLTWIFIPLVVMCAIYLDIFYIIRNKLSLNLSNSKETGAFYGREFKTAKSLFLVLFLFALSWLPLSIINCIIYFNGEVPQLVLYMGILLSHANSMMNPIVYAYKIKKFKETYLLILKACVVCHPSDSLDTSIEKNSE
T7 sequence (P50406 whole entry): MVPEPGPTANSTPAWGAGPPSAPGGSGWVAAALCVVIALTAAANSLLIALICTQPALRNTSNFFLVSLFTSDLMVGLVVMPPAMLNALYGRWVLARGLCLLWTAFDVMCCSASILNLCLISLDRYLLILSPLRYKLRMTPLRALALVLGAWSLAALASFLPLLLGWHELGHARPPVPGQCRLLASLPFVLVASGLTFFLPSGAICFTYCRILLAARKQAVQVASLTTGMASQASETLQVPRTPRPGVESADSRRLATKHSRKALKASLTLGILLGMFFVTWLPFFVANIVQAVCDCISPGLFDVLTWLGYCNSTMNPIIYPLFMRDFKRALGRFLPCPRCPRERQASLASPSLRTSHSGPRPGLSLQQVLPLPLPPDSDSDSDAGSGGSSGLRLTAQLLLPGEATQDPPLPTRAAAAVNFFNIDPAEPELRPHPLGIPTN
T2 sequence (P07550 whole entry): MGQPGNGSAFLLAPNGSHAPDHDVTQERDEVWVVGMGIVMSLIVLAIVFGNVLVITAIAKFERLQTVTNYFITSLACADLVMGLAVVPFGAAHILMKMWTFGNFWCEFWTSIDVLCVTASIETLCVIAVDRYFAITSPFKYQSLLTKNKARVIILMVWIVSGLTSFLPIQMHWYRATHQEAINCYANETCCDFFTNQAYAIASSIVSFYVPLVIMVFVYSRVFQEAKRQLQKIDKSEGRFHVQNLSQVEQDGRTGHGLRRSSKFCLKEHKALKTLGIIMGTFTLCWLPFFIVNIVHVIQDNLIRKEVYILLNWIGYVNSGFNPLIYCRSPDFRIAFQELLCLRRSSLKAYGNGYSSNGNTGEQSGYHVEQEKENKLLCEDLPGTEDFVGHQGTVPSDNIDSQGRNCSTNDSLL
T5 sequence (P20309 whole entry): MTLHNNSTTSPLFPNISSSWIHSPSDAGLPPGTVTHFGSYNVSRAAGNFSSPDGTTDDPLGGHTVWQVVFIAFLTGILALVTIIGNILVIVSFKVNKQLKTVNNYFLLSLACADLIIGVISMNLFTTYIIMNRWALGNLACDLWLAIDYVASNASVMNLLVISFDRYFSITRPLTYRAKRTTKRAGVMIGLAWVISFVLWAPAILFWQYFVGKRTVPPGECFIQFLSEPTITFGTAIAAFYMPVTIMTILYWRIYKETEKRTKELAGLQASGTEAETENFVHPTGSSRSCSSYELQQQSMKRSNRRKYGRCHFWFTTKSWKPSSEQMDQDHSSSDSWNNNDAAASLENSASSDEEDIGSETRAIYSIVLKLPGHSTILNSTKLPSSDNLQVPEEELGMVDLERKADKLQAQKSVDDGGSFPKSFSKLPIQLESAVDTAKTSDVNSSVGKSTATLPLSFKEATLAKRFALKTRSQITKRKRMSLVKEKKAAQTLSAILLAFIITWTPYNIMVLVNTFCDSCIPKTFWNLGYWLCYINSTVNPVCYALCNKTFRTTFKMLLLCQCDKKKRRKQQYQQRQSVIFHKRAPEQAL
T4 sequence (P48039 whole entry): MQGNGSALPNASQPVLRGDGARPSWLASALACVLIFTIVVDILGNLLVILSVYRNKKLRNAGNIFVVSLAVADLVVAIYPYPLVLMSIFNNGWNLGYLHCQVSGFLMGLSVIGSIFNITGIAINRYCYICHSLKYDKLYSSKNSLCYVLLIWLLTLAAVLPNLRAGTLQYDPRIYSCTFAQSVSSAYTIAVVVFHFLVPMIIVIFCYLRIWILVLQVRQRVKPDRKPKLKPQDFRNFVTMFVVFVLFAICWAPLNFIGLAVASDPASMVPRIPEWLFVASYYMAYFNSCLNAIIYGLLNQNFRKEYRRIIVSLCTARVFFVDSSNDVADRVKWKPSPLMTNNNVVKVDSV
T6 sequence (P30989 whole entry): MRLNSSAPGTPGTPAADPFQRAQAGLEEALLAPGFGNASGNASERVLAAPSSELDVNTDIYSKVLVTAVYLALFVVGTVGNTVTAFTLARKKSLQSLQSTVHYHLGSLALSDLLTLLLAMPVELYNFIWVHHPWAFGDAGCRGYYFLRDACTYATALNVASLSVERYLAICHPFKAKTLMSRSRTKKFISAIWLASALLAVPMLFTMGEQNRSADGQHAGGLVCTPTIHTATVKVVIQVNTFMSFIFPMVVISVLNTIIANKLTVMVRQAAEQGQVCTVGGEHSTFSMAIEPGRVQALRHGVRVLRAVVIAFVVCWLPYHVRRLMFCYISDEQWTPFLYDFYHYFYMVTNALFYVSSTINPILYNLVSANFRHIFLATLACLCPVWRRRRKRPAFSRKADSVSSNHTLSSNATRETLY

SMILES	incidence of arthritis and clinical scores as compared to PBS ([1]; 5 mg/kg p.o. day 0 to day 28)	clinical efficacy ([1]; 30 mg/kg p.o. day 0 to day 28)	inhibition at 10 µM (A3 (h)) [%]	inhibition at 10 µM (β2 (h)) [%]	inhibition at 10 µM (CB1 (h)) [%]	Mean Value, percent inhibition of control specific binding: GABA (non-selective) (GABA (non-selective)) [%]	inhibition at 10 µM (MT1 (h)) [%]	inhibition at 10 µM (M3 (h)) [%]	inhibition at 10 µM (NT1 (h) (NTS1)) [%]	Mean Value, percent inhibition of control specific binding: P2X (P2X) [%]	Mean Value, percent inhibition of control specific binding: P2Y (P2Y) [%]	inhibition at 10 µM (5-HT6 (h)) [%]	Mean Value, percent inhibition of control specific binding: σ (non-selective) (σ (non-selective)) [%]	Mean Value, percent inhibition of control specific binding: sst (non-selective) (sst (non-selective)) [%]	day until which similar clinical scores between the two groups was not reached [2] [days]	mean clinical score of the treated group from day 14 onward [2]	day at which disease reached 100% incidence ([2]; control group day 13) [days]
COc1ccc(C/C(=C/F)CN)cc1.Cl [Compound I-1-Z, (Z)-3-Fluoro-2-(4-methoxybenzyl)-allylamine hydrochloride]	reduced both the incidence of arthritis and the clinical scores	no clinical efficacy was observed	1	6	14	−19	0	16	-1	−2	−1	1	24	−4	–	–	–
NC/C(F)=C\Cc1cc(F)cc(C(F)(F)F)c1 [II-1-E, (E)-2-Fluoro-4-(3-fluoro-5-trifluoromethylphenyl)-but-2-enylamine]	–	–	–	–	–	–	–	–	–	–	–	–	–	–	38	well below that in the control group	24
